Measurements reported in US11628146B2, “Estrogen receptor ligand treatment for neurodegenerative diseases” (The Regents of the University of California, priority 2014, dated 2023).
“Also recorded” adds a separate entry of the source.

Experiments:
[1] = Dissolution of the compound in the oil vehicle; format: physicochemical; details: merely pipetting
Procedure: (§1) Reagents. AC-186 was dissolved in either Miglyol 812N liquid oil (Sasol North America) or sesame oil (Sigma Aldrich) as following concentration; 1.5 mg/mL for 3 mg/kg group, 5 mg/mL for 10 mg/kg group, and 15 mg/mL for 30 mg/kg group. Diarylpropionitrile (DPN, Tocris Biosciences) was dissolved in 10% molecular-grade ethanol and diluted with 90% of either Miglyol 812N liquid oil or sesame oil.
Three doses of the AC-186 compound were tested in C57BL6 female mice: low (3 mg/kg, every other day), medium (10 mg/kg, every other day), and high (30 mg/kg, every other day), each injected subcutaneously in a sesame oil vehicle. The ERβ ligand diarylpropionitrile (DPN) was tested as a positive control because DPN can partially ameliorate EAE and because the treatment effects in EAE experiments can vary based on the level of disease severity within an experiment. Direct comparisons between treatments were only made between treatment groups within a single EAE experiment and not between treatment groups of different EAE experiments. […] The difference in improvement between the 30 mg/kg AC-186 group and all other groups increased with time.

[2] = test system: female C57BL/6 mice with EAE; experiment: In vivo longitudinal MRI of brain volumes in EAE; set-up: species or system mouse
Procedure: MRI Acquisition. Mice were anesthetized with isofluorane and their heads secured with bite and ear bars. Respiration rate was monitored and the mice were maintained at 37° C. using a circulating water pump. In vivo magnetic resonance imaging was performed using a 200 mm horizontal bore 7.0 T Bruker imaging spectrometer with a micro-imaging gradient insert with a maximum gradient strength of 100 G/cm and 30 mm birdcage RF coil (Bruker Instruments, Billerica, Mass.). An actively decoupled quadrature surface coil array was used for signal reception and a 72-mm birdcage coil was used for transmission. Images were acquired and reconstructed using ParaVision 5.1 software. Imaging parameters were as follows: rapid-acquisition with relaxation enhancement (RARE) sequence, matrix dimensions=256×128×64; field of view=3.84 cm×1.92 cm×0.96 cm; repetition time (TR)=3500 ms; apparent time to echo (apparent TE)=32 ms; echo train length=16; total scan time=37 mins. Spatial resolution was 150 μm^3 per voxel.
MRI Analysis. Images were skull-stripped using the Brain Surface Extractor (BSE) and residual non-brain signal was removed by a single operator manually editing the masks using BrainSuite 11a and bias-field inhomogeneities removed using the N3 correction. After inhomogeneity correction, a minimum deformation atlas (MDA) was produced. Images were spatially and intensity normalized to the MDA using a rigid-body transformation and an intensity rescaling cost function in Alignlinear (AIR). This process permits the comparison of images in a standard space correcting for both gross positional and intensity differences, yet preserving anatomically significant local changes. Following creation of this atlas, cerebral cortices and cerebella were manually labeled on the atlas. The labels were then warped onto the individual spatially normalized images to produce standardized estimates of gray matter volumes in individual subjects. All automated image processing was performed using the LONI Pipeline Processing Environment on an 8-processor core Mac Pro computer (Apple, Cupertino, Calif.).
Cerebral cortex and cerebellum labels were based on the Mouse Atlas Project 2003 mouse brain atlas. […] Importantly, this label contained the somatosensory regions (primary and secondary) and the motor cortex (primary and secondary). Additional anatomical information was obtained from the Franklin and Paxinos mouse brain atlas (Franklin and Paxinos, 2008).
Statistics. Global and regional brain volume changes in EAE mice and control animals were compared with repeated measures ANOVAs using SPSS 22 (IBM, Armonk, N.Y.). […] Regression analysis and Welch's t-tests were performed in Excel 2011 (Microsoft, Redmond, Wash.). All results are presented as mean±standard deviation.

EAE in NOD mice = experiment: Standard EAE clinical score (0-5 scale), MOG-induced EAE, NOD mice; format: in vivo, mouse; set-up: key to Standard EAE Score: n.s. = not significant; *p < 0.05; ***p = 0.0004; ****p < 0.0001; n.i. = not informative; details: for Standard EAE Score: significance vs vehicle
From the text: Animals. C57BL/6 and NOD mice 8 weeks old were purchased from Jackson Laboratories (Bar Harbor, Me.). Animals were maintained under environmentally controlled conditions in a 12-hour light/dark cycle with access to food and water ad libitum. All procedures were done in accordance with the guidelines of the National Institutes of Health and the Chancellor's Animal Research Committee of the University of California, Los Angeles Office for the Protection of Research Subjects.
as §1
EAE and Treatments. Animals were injected subcutaneously with Myelin Oligodendrocyte Glycoprotein (MOG), amino acids 35-55 (200 μg/animal, American Peptides), emulsified in complete Freund's adjuvant (CFA) and supplemented with Mycobacterium tuberculosis H37ra (300 μg/animal, Difco Laboratories), over two sites drained by left inguinal and auxiliary lymph nodes in a total volume of 0.1 ml/mouse. One week later, a booster immunization was delivered over contra lateral lymph nodes. Pertussis toxin (500 ng/mouse) (List Biological Laboratories, Inc.) was injected intraperitoneally on days 0 and 2. Animals were monitored daily for EAE signs based on a standard EAE 0-5 scale scoring system: 0—healthy, 1—complete loss of tail tonicity, 2—loss of righting reflex, 3—partial paralysis, 4—complete paralysis of one or both hind limbs, and 5—moribund. Animals received 0.05 ml of either of 1.5, 5, 15 mg/mL AC-186, vehicle (sesame oil or Miglyol 812N liquid oil), or DPN (8 mg/kg/day) via subcutaneous injections every other day. Animals were treated with AC-186 or vehicle after EAE induction. Specifically, treatment was initiated at the first clear signs of clinical disease (EAE day 13-15), and continued to the endpoint of the experiment.

[3] = 30 mg/kg every other day in miglyol, d0, d30, d60, vs vehicle-treated EAE

Oc1ccc(C2(c3ccccc3F)CCC(F)(F)CC2)cc1 [AC-186]
Time to dissolve in miglyol [1]: 30 s | Cerebellar atrophy (volume loss) [2, 3]: decreased the amount of volume loss; also recorded: less cerebellar atrophy | Cerebral cortex atrophy [2, 3]: atrophy rates were decreased; also recorded: less atrophy in the cerebral cortex | Whole brain atrophy (whole brain volume decrease over time) [2, 3]: significantly smaller; also recorded: less brain atrophy | Volume of the whole cerebellum ([2]; AC-186 30 mg/kg treated EAE mice, d60, mean, SD 1.1 mm^3): 51.8 mm^3 | Volume of the cerebral cortex ([2]; AC-186 30 mg/kg treated EAE mice, d60, mean, SD 1.6 mm^3): 70.8 mm^3 | Volume of the whole brain ([2]; AC-186 30 mg/kg treated EAE mice, d60, mean, SD 7.0 mm^3): 483 mm^3 | Difference in cerebellum volume vs vehicle treated EAE mice ([2]; d60, vehicle 50.0 mm^3): 3.5% | Difference in cerebral cortex volume vs vehicle treated EAE mice ([2]; d60, vehicle 68.9 mm^3): 5.0% | Difference in whole brain volume vs vehicle treated EAE mice ([2]; d60, vehicle 478 mm^3): 2.7% | Standard EAE Score (EAE in NOD mice; NOD F, AC186 10 mg/kg, miglylol vehicle): **** (****p < 0.0001) | Standard EAE Score (EAE in NOD mice; NOD F, AC186 30 mg/kg, miglylol vehicle): **** (****p < 0.0001) | Standard EAE Score (EAE in NOD mice; NOD F, AC186 30 mg/kg, sesame vehicle): n.s. | Standard EAE Score (EAE in NOD mice; NOD M, AC186 10 mg/kg, miglylol vehicle): n.s. | Standard EAE Score (EAE in NOD mice; NOD M, AC186 30 mg/kg, miglylol vehicle): **** (****p < 0.0001) | EAE score (EAE in NOD mice; NOD females, 10 mg/kg in miglyol, vs vehicle, 10 mg/kg): improved EAE scores; also recorded: better EAE scores | EAE score (EAE in NOD mice; NOD females, 30 mg/kg in miglyol, vs vehicle, 30 mg/kg): improved EAE scores; also recorded: better EAE scores | EAE score (EAE in NOD mice; NOD females, high dose AC-186 in sesame oil carrier): did not ameliorate EAE scores; also recorded: no protection was observed | EAE score (EAE in NOD mice; NOD males, 10 mg/kg in miglyol, vs vehicle): not | EAE score (EAE in NOD mice; NOD males, 30 mg/kg in miglyol, vs vehicle, 30 mg/kg): improved EAE scores; also recorded: ameliorated
